From patent US10703748B2, “Diazanaphthalen-3-yl carboxamides and preparation and use thereof” (Samumed, LLC, priority 2017, dated 2020)

What was measured:
[1] = tested on: Tau phosphorylation at Ser396 (pSer396); test: Tau phosphorylation at Ser396 (pSer396) in SH-SY5Y cells, ELISA / western blot; type: cell-based, human; conditions: Homo sapiens; SH-SY5Y cells, overnight (16-18 h); read-out: pSer396 Tau EC50;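 also: decrease in pSer396 Tau measured in lysates of treated cells by colorimetric ELISA or chemiluminescent western blot, same pSer396 antibody for both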
Procedure: Two days before treatment, cells were seeded onto 96 well plates at 5×10^4 cells/well.
The above synthesized compounds were screened using the cell assay procedure to assess decrease Tau phosphorylation at Ser396 (pSer396) described below.
Cells were lysed with RIPA buffer complemented with phosphatase and protease inhibitors then lysates were spun down at 12,000 g for 10 min to remove any cellular debris.

[2] = tested on: secreted cytokines TNFα, IL-6 and KC-GRO; test: Secreted cytokines in Lipopolysaccharide-stimulated BV-2 cells (Table 9 does not say which cytokine); type: cell-based, mouse; conditions: Mus musculus, BV-2, 5 h; read-out: EC50
[3] = target: DYRK1A kinase (Homo sapiens, UniProt Q13627); test: DYRK1A kinase activity (Ser/Thr 18 peptide Z-lyte FRET assay); type: biochemical; conditions: recombinant DYRK1A, 30 μM ATP, one hour at room temperature;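 also: kinase activity read as coumarin/fluorescein emission ratio after development step, with unphosphorylated and phosphorylated peptide forms setting 0% and 100% controls, values from dose-response curves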
[4] = tested on: SW480 colon carcinoma cells; test: Cell viability assay (CellTiter-Glo); conditions: Homo sapiens; for EC50: SW480, 96 h; for inhibition at 10 µM: SW480, read-out: percent inhibition at 10 μM
[5] = target: GSK3β kinase (Homo sapiens, UniProt P49841); test: GSK3β kinase activity (Ser/Thr 09 peptide Z-lyte FRET assay); type: biochemical; conditions: recombinant kinase, 46 μM ATP, one hour at room temperature; read-out: EC50
Chain of GSK3β kinase (P49841 whole entry): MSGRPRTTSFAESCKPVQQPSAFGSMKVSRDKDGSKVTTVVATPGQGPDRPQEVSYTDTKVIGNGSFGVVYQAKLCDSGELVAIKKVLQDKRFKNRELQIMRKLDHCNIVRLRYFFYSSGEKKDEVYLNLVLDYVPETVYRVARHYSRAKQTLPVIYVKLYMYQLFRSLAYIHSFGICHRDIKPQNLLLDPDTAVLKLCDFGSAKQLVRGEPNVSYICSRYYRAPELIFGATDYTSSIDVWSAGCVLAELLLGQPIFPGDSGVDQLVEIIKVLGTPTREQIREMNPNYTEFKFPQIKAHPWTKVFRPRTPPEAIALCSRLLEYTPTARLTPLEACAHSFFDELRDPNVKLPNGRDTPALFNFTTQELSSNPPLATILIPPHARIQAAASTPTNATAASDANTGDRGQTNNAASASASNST

[6] = tested on: Wnt-responsive Sp5-Luc reporter in SW480 colon carcinoma cells; test: Screening assay for Wnt activity (Sp5-Luc reporter gene assay); conditions: Homo sapiens; for EC50: SW480; for inhibition at 10 µM: SW480, read-out: percent inhibition at 10 μM
[7] = tested on: IL-6; test: IL-6 inhibition in LPS-stimulated human peripheral blood mononuclear cells (HTRF); conditions: Homo sapiens, PBMC; for EC50: 22 h; for inhibition at 10 µM: read-out: percentage in parentheses after EC50 >10
[8] = tested on: α-smooth muscle actin (aSMA) positive LL29 cells; test: Inhibition of the fibrotic process: αSMA staining in TGF-β1 treated LL29 fibroblasts from IPF patients; conditions: Homo sapiens, Fibroblast; for EC50: 96 h; for inhibition at 10 µM: read-out: percentage in parentheses after EC50 >10

| Compound | EC50 [1] [nM] | EC50 [2] [nM] | EC50 [3] [nM] | EC50 [4] [nM] | EC50 [5] [nM] | EC50 [6] [nM] | EC50 [7] [nM] | EC50 [8] [nM] | inhibition at 10 µM [4] [%] | inhibition at 10 µM [8] [%] | inhibition at 10 µM [7] [%] | inhibition at 10 µM [6] [%] |
| --- | --- | --- | --- | --- | --- | --- | --- | --- | --- | --- | --- | --- |
| Cn1cc(-c2ccc3cnc(NC(=O)CC4CNCCO4)cc3n2)cn1 (stereo not shown) [Compound 86, N-(2-(1-Methyl-1H-pyrazol-4-yl)-1,6-naphthyridin-7-yl)-2-(morpholin-2-yl)acetamide] | 1000 | 201 | 12 | 3610 | 68 | 1890 | 1020 | 1890 |  |  |  |  |
| Cn1cc(-c2ccc3cnc(NC(=O)C4CCN(Cc5ncco5)CC4)cc3n2)cn1 [Compound 95, N-(2-(1-Methyl-1H-pyrazol-4-yl)-1,6-naphthyridin-7-yl)-1-(oxazol-2-ylmethyl)piperidine-4-carboxamide] | 1700 | 66 | 6 | > 10000 | 84 | 1540 | 9090 | 444 | 38.6 |  |  |  |
| Cn1cc(-c2ccc3cnc(NC(=O)C4CCN(Cc5ncccn5)CC4)cc3n2)cn1 [Compound 99, N-(2-(1-Methyl-1H-pyrazol-4-yl)-1,6-naphthyridin-7-yl)-1-(pyrimidin-2-ylmethyl)piperidine-4-carboxamide] | 967 | 177 | 9 | > 10000 | 180 | 1310 | 8600 | 4060 | 37 |  |  |  |
| CC(C(=O)Nc1cc2nc(-c3cnn(C)c3)ccc2cn1)N1CCCCC1 (stereo not shown) [Compound 112, N-(2-(1-Methyl-1H-pyrazol-4-yl)-1,6-naphthyridin-7-yl)-2-(piperidin-1-yl)propanamide] | 1100 | 5400 | 88 | 7790 | 62 | 3650 | 9400 | > 10000 |  | 13.8 |  |  |
| CC(C)CN1CCC(CC(=O)Nc2cc3nc(-c4cnn(C)c4)ccc3cn2)C1 (stereo not shown) [Compound 122, 2-(1-Isobutylpyrrolidin-3-yl)-N-(2-(1-methyl-1H-pyrazol-4-yl)-1,6-naphthyridin-7-yl)acetamide] | 481 | 590 | 16 | 3110 | 70 | 2540 | 3170 | 4020 |  |  |  |  |
| Cn1cc(-c2ccc3cnc(NC(=O)CCc4ccccc4)cc3n2)cn1 [Compound 194, N-(2-(1-Methyl-1H-pyrazol-4-yl)-1,6-naphthyridin-7-yl)-3-phenylpropanamide] | 3000 | 819 | 23 | 7620 | 17 | 596 | 8940 | 935 |  |  |  |  |
| Cc1ncc(C(=O)Nc2cc3nc(-c4cnc(C)n4C)ccc3cn2)s1 [Compound 447, N-(2-(1,2-Dimethyl-1H-imidazol-5-yl)-1,6-naphthyridin-7-yl)-2-methylthiazole-5-carboxamide] | 562 | 83 | 1 | 165 | 48 | 107 | 4250 | 517 |  |  |  |  |
| Cn1cncc1-c1ccc2cnc(NC(=O)c3cccc(CN4CCCC4)c3)cc2n1 [Compound 450, N-(2-(1-Methyl-1H-imidazol-5-yl)-1,6-naphthyridin-7-yl)-3-(pyrrolidin-1-ylmethyl)benzamide] | 3760 | 3000 | 1 | 409 | 350 | 279 | 3510 | 517 |  |  |  |  |
| Cn1cncc1-c1ccc2cnc(NC(=O)c3ccc4c(c3)CNC4)cc2n1 [Compound 477, N-(2-(1-Methyl-1H-imidazol-5-yl)-1,6-naphthyridin-7-yl)isoindoline-5-carboxamide] | 10000 | 4800 | 1 | 1690 | 84 | 962 | 9830 | 632 |  |  |  |  |
| CC(C)Oc1ccc(C(=O)Nc2cc3nc(-c4cnc5n4CCNC5)ccc3cn2)cc1 [Compound 523, 4-Isopropoxy-N-(2-(5,6,7,8-tetrahydroimidazo[1,2-a]pyrazin-3-yl)-1,6-naphthyridin-7-yl)benzamide] | 3940 | 799 | 4 | 814 | 362 | 530 | > 10000 | 1630 |  |  | 3.7 |  |
| Cc1ncc(-c2ccc3cnc(NC(=O)[C@H]4C[C@H](N5CCOCC5)C4)cc3n2)o1 [Compound 556, trans-N-(2-(2-Methyloxazol-5-yl)-1,6-naphthyridin-7-yl)-3-morpholinocyclobutane-1-carboxamide] | 487 | 2200 | 54 | > 10000 | 86 | > 10000 | > 10000 | > 10000 | 29.4 | 27.6 | 4.9 | 41.3 |
| Cc1cn2c(n1)CN(C(=O)Nc1cc3nc(-c4cnc(C)o4)ccc3cn1)CC2 [Compound 585, 2-Methyl-N-(2-(2-methyloxazol-5-yl)-1,6-naphthyridin-7-yl)-5,6-dihydroimidazo[1,2-a]pyrazine-7(8H)-carboxamide] | 374 | 257 | 9 | 2690 | 109 | 2080 | > 10000 | 2510 |  |  | 9.4 |  |
| O=C(Nc1cc2nc(-c3cncs3)ccc2cn1)[C@H]1CC[C@H](CN2CC(F)C2)CC1 [Compound 613, trans-4-((3-Fluoroazetidin-1-yl)methyl)-N-(2-(thiazol-5-yl)-1,6-naphthyridin-7-yl)cyclohexane-1-carboxamide] | 157 | 106 | 3 | 3600 | 219 | 8810 | 1100 | 650 |  |  |  |  |
| Cc1ncc(-c2ccc3cnc(NC(=O)N4CCOCC4)cc3n2)s1 [Compound 634, N-(2-(2-Methylthiazol-5-yl)-1,6-naphthyridin-7-yl)morpholine-4-carboxamide] | 7900 | 542 | 29 | > 10000 | 1150 | 8610 | > 10000 | 2130 | 41.2 |  | 13 |  |
| Cc1ncc(-c2ccc3cnc(NC(=O)C4CCN(C)CC4)cc3n2)s1 [Compound 640, 1-Methyl-N-(2-(2-methylthiazol-5-yl)-1,6-naphthyridin-7-yl)piperidine-4-carboxamide] | 877 | 504 | 38 | > 10000 | 401 | > 10000 | 7340 | 671 | 40.4 |  |  | 42.9 |
| O=C(Nc1cc2nc(-c3cccnc3)ccc2cn1)C1CC1 [Compound 764, N-(2-(Pyridin-3-yl)-1,6-naphthyridin-7-yl)cyclopropanecarboxamide] | 807 | 5100 | 8 | > 10000 | 243 | > 10000 | > 10000 | > 10000 | 24.7 | 5.8 | 4.3 | 27.5 |
| Cn1cc(-c2ccc3cnc(NC(=O)C4CC4)nc3c2)cn1 [Compound 909, N-(7-(1-Methyl-1H-pyrazol-4-yl)quinazolin-2-yl)cyclopropanecarboxamide] | 372 | 1900 | 13 | > 10000 | 25 | > 10000 | 4860 | 1380 | 45.6 |  |  | 56.1 |
| Cn1cc(-c2ccc3cnc(NC(=O)C4CCNCC4)nc3c2)cn1 [Compound 918, N-(7-(1-methyl-1H-pyrazol-4-yl)quinazolin-2-yl)piperidine-4-carboxamide] | > 10000 | > 10000 | 62 | > 10000 | 236 | > 10000 | > 10000 | > 10000 | 10.2 | 31.2 | 14.6 | 5 |
| CC(C)CN1CCC(C(=O)Nc2ncc3ccc(-c4cnn(C)c4)cc3n2)CC1 [Compound 923, 1-isobutyl-N-(7-(1-methyl-1H-pyrazol-4-yl)quinazolin-2-yl)piperidine-4-carboxamide] | 1300 | 1070 | 44 | > 10000 | 204 | > 10000 | > 10000 | 2720 | 33.9 |  | 10.5 | 34.8 |
